Measurements: patent publication US20240352487A1, “MTOR -TARGETED MODIFICATION AND USES THEREOF” (UNIVERSITÉ LAVAL, priority 2021, published 2024)
“Also recorded” adds a separate entry of the source.

Tests used:
[1] = test system: metastatic anaplastic thyroid carcinoma; settings: patient with metastatic anaplastic thyroid carcinoma; cited from earlier work
mTORC1 signaling = assay: mSc-TOSI mTORC1 signaling assay (FACS) in K562 cells; type: cell-based, human
Method: (A) Schematic representation of the mScarlet-I mTOR Signaling Indicator (mSc-TOSI) degradation under mTORC1 signaling. (B) mSc-TOSI fluorescence intensity in bulk populations of K562 cells stably expressing the mTORC1 signaling reporter. Where indicated, cells were treated with the indicated concentration of mTOR inhibitor for 24 hours before FACS analysis.
(A) Schematic representation of the mScarlet-I mTOR Signaling Indicator (mSc-TOSI) degradation under mTORC1 signaling. (B) mSc-TOSI fluorescence intensity in homozygous single cell-derived K562 clones harboring the MTOR-F2108L mutation with or without targeted CAR integration. Single cell-derived K562 clones were isolated in methylcellulose-based semi-solid RPMI media supplemented with 100 μM ouabain. Where indicated, cells were treated with the indicated concentration of mTOR inhibitor for 24 hours before FACS analysis.
Active mTORC1 signaling results in rapid phosphorylation of the mSc-TOSI phosphodegron by S6K, ubiquitination, and degradation by the proteasome while its inhibition stabilizes the reporter.
The percentage of fluorescent cells was quantified using a BD LSRII flow cytometer and 1×10^5 cells were analyzed for each condition. […] For mTORC1 signaling assays, cells were treated with the indicated concentration of rapamycin or AZD8055 for 24 hours before analysis. FACS sorting was performed using a BD FACS Aria Fusion flow cytometer for the saturation prime editing experiment and 5×10^5 cells were sorted for each condition. Flow cytometric data visualization and analysis were performed using FlowJo™ software (Tree Star).
We then adapted a fluorescent mTORC1 signaling indicator^34 (mSc-TOSI) to assess the impact of rapamycin on mTORC1 signaling after targeted transgene integration to the MTOR locus. Active mTORC1 signaling results in rapid phosphorylation of the mSc-TOSI phosphodegron by S6K, ubiquitination, and degradation by the proteasome while its inhibition stabilizes the reporter^34 (FIG. 5A). We treated bulk populations of cells harboring the MTOR-F2108L mutation with or without targeted therapeutic transgene integration at the MTOR locus with different concentrations of rapamycin and AZD8055, a second-generation mTOR inhibitor.

MTOR locus [2] = assay: Transgene knock-in at MTOR in CD3+ T cells, FACS quantification; type: cell-based, human
Description: (A) Strategy for CRISPR-driven mScarlet-I gene knock-in to the MTOR locus using a linear double-stranded DNA (dsDNA) donor. […] The percentage of cells expressing the mScarlet-I reporter was quantified by FACS after selection. HA, homology arm. PA, polyadenylation signal. EGFP, enhanced green fluorescent protein. 2A self-cleaving peptide.
(A) Strategy for the CRISPR-driven CAR-2A-EGFP gene knock-in to the MTOR locus using a linear double-stranded DNA (dsDNA) donor. […] The percentage of cells expressing the EGFP reporter was quantified by FACS after selection. HA; homology arm. PA; polyadenylation signal. EGFP; enhanced green fluorescent protein. 2A self-cleaving peptide.
The percentage of cells expressing the EGFP reporter was quantified by FACS after selection. HA, homology arm. PA, polyadenylation signal. EGFP, enhanced green fluorescent protein. 2A self-cleaving peptide.
dsDNA donors were produced as described previously^24. The donor sequences were cloned into a cloning vector and PCR amplification (25 cycles) was performed using Kapa-HiFi polymerase. DNA purification was performed by solid-phase reversible immobilization using AMPure XP (Beckman Coulter) magnetic beads. For ribonucleoprotein complex (RNP) formulation, 100 pmols of sgRNAs (IDT) were mixed with 0.8 μL of 100 mg/mL polyglutamic acid (Sigma) and 50 pmols of SpCas9 nuclease (IDT), as previously described^27. The RNP mix was incubated at 37° C. for 10 minutes and the dsDNA donors were added to the mix and incubated at room temperature for 5 minutes before transfection. Primary CD3^+ T cells (1×10^6 cells/transfection) were transfected using a Lonza 4D Nucleofector™ with a P3 nucleofection kit (Lonza) following manufacturer's recommendations with the indicated DNA concentrations. CD3+ T cells were resuspended in 80 μL media without IL-2 directly after nucleofection and incubated at 37° C. for 15 minutes before transfer into culture media plates. For AAV6 transduction, CD3+ T cells were resuspended in 80 μL media directly after nucleofection and AAV6 vectors were added. Cells were incubated at 37° C. for 8 hours at high cell density before transfer into culture media plates.
The percentage of fluorescent cells was quantified using a BD LSRII flow cytometer and 1×10^5 cells were analyzed for each condition. For antibody staining, K562 cells were incubated with Fc receptor block (eBioscience Cat 16-9161-73) for 20 minutes on ice with PBS and 3% human serum (Sigma). Anti-human CD34 Alexa Fluor 488-conjugated antibody clone QBEnd10 (R and D systems Cat FAB7227G) and anti-human CD52 FITC-conjugated antibody clone HI186 were used for RQR8 and CD52 quantification, respectively. For mTORC1 signaling assays, cells were treated with the indicated concentration of rapamycin or AZD8055 for 24 hours before analysis. […]

MTOR locus [3] = assay: F2108L edited alleles in CD3+ T cells after rapamycin selection, TIDER; type: cell-based, human; settings: 2 μg dsDNA donor, after rapamycin selection 15 days
Description: (A) Strategy for the CRISPR-driven insertion of the F2108L mutation to the MTOR locus using a linear double-stranded DNA (dsDNA) donor. (B) Schematic representation of the SpCas9 target site and the dsDNA donor sequence harboring the F2108L and PAM mutations (WT sequence: 5′ portion corresponds to SEQ ID NO: 45 and 3′ portion corresponds to SEQ ID NO: 46; G49 donor: 5′ portion corresponds to SEQ ID NO: 47 and 3′ portion corresponds to SEQ ID NO: 48). […] The percentage of edited alleles was quantified by TIDER after selection.
Receptor dimerization is induced with rapamycin. […] HA, homology arm. PA, polyadenylation signal. EGFP, enhanced green fluorescent protein. 2A self-cleaving peptide.
dsDNA donors were produced as described previously^24. The donor sequences were cloned into a cloning vector and PCR amplification (25 cycles) was performed using Kapa-HiFi polymerase. DNA purification was performed by solid-phase reversible immobilization using AMPure XP (Beckman Coulter) magnetic beads. […]
Genomic DNA was extracted with QuickExtract DNA extraction solution (EpiCentre) following manufacturer's recommendations. […] Sanger sequencing was performed on PCR amplicons to quantify the percentage of edited alleles using TIDE and TIDER^28,29. […]

K562 cells = assay: K562 cell growth in the presence of rapamycin; type: cell-based, human
Method: (A) Prime editing and small indels quantification at MTOR as determined by BEAT and TIDE analysis from Sanger sequencing. K562 cells stably expressing the mSc-TOSI reporter were transfected with 0.75 μg of pCMV-PEmax vector, 0.25 μg of epegRNA (tevopreQ1) vector, and 0.1 μg of nick sgRNA vector. Genomic DNA was harvested 3 days post-transfection (before selection) and cells were treated (rapamycin) or not (vehicle) with 0.5 μM rapamycin until all non-resistant cells were eliminated.
K562 cells were obtained from the ATCC (CCL-243) and NALM6 cells stably transduced to express a FLUC-T2A-RFP-IRES-Puro reporter gene cassette (Biosettia). K562 and NALM6 cells were maintained at 37° C. under 5% CO2 in RPMI medium supplemented with 10% FBS, penicillin-streptomycin, and GlutaMAX. Cells were routinely tested for the absence of mycoplasma contamination. Rapamycin (Cayman Chemicals, Cat 53123-88-9) was dissolved at 10 mg/mL in DMSO, working dilutions were prepared in water and stored at −20° C. AZD8055 ([…] Technologies) was dissolved at 10 mM in DMSO, working dilutions were prepared in water and stored at −20° C. DMSO alone was diluted in water and used as vehicle control. Ouabain octahydrate (Sigma) was dissolved at […] in hot water, working dilutions were prepared in water and stored at −20° C. K562 cells (2×10^5 cells/transfection) were transfected using a Lonza 4D Nucleofector™ with a SF nucleofection kit (Lonza) following manufacturer's recommendations with the indicated DNA concentrations. Cells were treated with the indicated concentration of rapamycin 3 days post-nucleofection until all non-resistant cells were eliminated. For the isolation of single cell-derived clones, simultaneous coselection and cloning was performed in methylcellulose-based semi-solid RPMI medium supplemented with 100 μM ouabain for 10 days.
We then designed epegRNAs to validate the new MTOR-F2108 mutations individually. […] These observations confirmed that the five new mutations identified by saturation prime editing conferred resistance to rapamycin.

MTOR locus [4] = assay: Transgene knock-in at MTOR in K562 cells, FACS quantification; type: cell-based, human; settings: Rapamycin-treated K562 cells, FACS with antibody staining
Method: (A) Strategy for the CRISPR-driven CAR-2A-EGFP gene knock-in to the MTOR locus using a plasmid donor. (B) K562 cells were transfected with 0.5 μg of SpCas9-sgRNA-expressing plasmid and 1 μg of donor plasmid. Cells were treated with 0.5 μM rapamycin 3 days post-transfection until all non-resistant cells were eliminated. The percentage of cells expressing the EGFP reporter was quantified by FACS after selection. HA; homology arm. PA; polyadenylation signal. EGFP; enhanced green fluorescent protein. 2A self-cleaving peptide.
(A) Strategy for the CRISPR-driven RQR8 gene knock-in to the MTOR locus using a plasmid donor. (B) K562 cells were transfected with 0.5 μg of SpCas9-sgRNA-expressing plasmid and 1 μg of donor plasmid harboring. […] The percentage of cells expressing the RQR8 epitope marker was quantified by FACS after selection using an Alexa Fluor 488-conjugated anti-human CD34 antibody. […] (D) Same as in B, but the percentage of cells expressing CD52 was quantified using a FITC-conjugated anti-human CD52 antibody. […]
The percentage of fluorescent cells was quantified using a BD LSRII flow cytometer and 1×10^5 cells were analyzed for each condition. […] Anti-human CD34 Alexa Fluor 488-conjugated antibody clone QBEnd10 (R and D systems Cat FAB7227G) and anti-human CD52 FITC-conjugated antibody clone HI186 were used for RQR8 and CD52 quantification, respectively. […]

Molecule: CO[C@H]1C[C@@H]2CC[C@@H](C)[C@@](O)(O2)C(=O)C(=O)N2CCCC[C@H]2C(=O)O[C@H]([C@H](C)C[C@@H]2CC[C@@H](OCCO)[C@H](OC)C2)CC(=O)[C@H](C)/C=C(\C)[C@@H](O)[C@@H](OC)C(=O)[C@H](C)C[C@H](C)/C=C/C=C/C=C/1C [everolimus]
- response duration before relapse [1]: 18 month

Molecule: COc1ccc(-c2ccc3c(N4CCOC[C@@H]4C)nc(N4CCOC[C@@H]4C)nc3n2)cc1CO [AZD8055]
- sensitivity of mTORC1 signaling to inhibitor (mTORC1 signaling; CRISPR-engineered K562 cells harboring MTOR-F2108L, 24 hours): remained sensitive

Molecule: G49: gRNA, MTOR-Intron 45, target AGGTAGGATCTTCAGGCTCC (SEQ ID NO: 6); used as SpCas9 RNP with donor (listed as DNA, chemistry not given here; listed as Homo sapiens)
- percentage of CD3+ T cells expressing the mScarlet-I reporter (MTOR locus [2]; 1 μg dsDNA donor, after rapamycin selection 8 days): 21%
- percentage of CD3+ T cells expressing the mScarlet-I reporter (MTOR locus [2]; 1 μg dsDNA donor, without selection): 11%
- percentage of CD3+ T cells expressing the mScarlet-I reporter (MTOR locus [2]; 2 μg dsDNA donor, after rapamycin selection 8 days): 31%
- percentage of CD3+ T cells expressing the mScarlet-I reporter (MTOR locus [2]; 2 μg dsDNA donor, without selection): 18%
- alleles harboring the F2108L mutation (MTOR locus [3]): up to 63%
- alleles harboring the PAM mutation (MTOR locus [3]): ≤ 69%

Molecule: CO[C@H]1C[C@@H]2CC[C@@H](C)[C@@](O)(O2)C(=O)C(=O)N2CCCC[C@H]2C(=O)O[C@H]([C@H](C)C[C@@H]2CC[C@@H](O)[C@H](OC)C2)CC(=O)[C@H](C)/C=C(\C)[C@@H](O)[C@@H](OC)C(=O)[C@H](C)C[C@H](C)/C=C/C=C/C=C/1C [rapamycin, Rapamycin]
- mTORC1 signaling (mTORC1 signaling; K562 cells after prime editing (F2108L) and selection, different concentrations of rapamycin): remained functional
- mTORC1 signaling (mTORC1 signaling; K562 with F2108L mutation): complete rapamycin resistance
- mTORC1 signaling (mTORC1 signaling; K562 with F2108V and F2108K): low levels of signaling
- mTORC1 signaling (mTORC1 signaling; K562 with F21081, F2108M, and F2108G): intermediate levels of signaling
- mTORC1 signaling (mTORC1 signaling; K562 without epegRNA (pUC19) and with silent F2108F mutation): complete mTORC1 signaling inhibition
- mTORC1 signaling (mTORC1 signaling; MTOR-F2108L homozygous K562 clones with or without CAR integration, rapamycin treatment): remained completely functional
- mTORC1 signaling (mTORC1 signaling; adenine base edited K562 cells, in the presence of rapamycin): very low levels of mTORC1 signaling
- mTORC1 signaling (mTORC1 signaling; bulk K562 cells harboring MTOR-F2108L with or without transgene integration, 50 nM to 5 000 nM rapamycin, 24 hours): functional mTORC1 signaling; also recorded: slight mTORC1 signaling decrease
- resistance of cells to rapamycin (K562 cells; ABE8e-targeted K562 cells): partial resistance
- cell growth (K562 cells; K562 cells harboring MTOR-F2108 substitutions, 0.5 μM rapamycin): grew robustly
- resistance of cells to rapamycin (K562 cells; K562 cells with silent F2108F mutation, 0.5 μM rapamycin): no resistance

Molecule: RQR8: 136-amino-acid epitope-based marker/suicide gene targeted to MTOR with plasmid donor (SEQ ID NO: 26)
- transgene expression (MTOR locus [4]): higher transgene expression
